Values joined by “and” are separate entries in the source; they are usually repeats but may differ in a detail not shown here. Identical values can stand only once. “Also recorded” adds a separate entry of the source.
Tests used:
Kaposi's sarcoma = settings: mice implanted with Kaposi's sarcoma; cited from earlier work
[1] = system: adult T-cell leukemia cells; settings: NOD/SCID mice implanted with adult T-cell leukemia cells; cited from earlier work
[2] = system: thymic derived naïve T-cell numbers in the peripheral blood; experiment: TREC analysis (sjTREC/CCR5 real-time PCR) of peripheral blood in HIV-negative volunteers on nelfinavir mono-therapy; format: in vivo, human
Protocol: (§1) Following approval by the Mayo Institutional Review Board, peripheral blood was sampled from 46 healthy blood donors older than 18 years of age for baseline TREC analysis. For the separate nelfinavir trial, 15 HIV-negative individuals with no active illness older than 18 years of age were given nelfinavir, 1250 mg orally, twice a day for 21 days. Blood for TREC analysis was obtained before therapy and on days 3, 5, 7, 14, and 21 after starting therapy. At each blood draw, side-effects were monitored and recorded from each subject. Severity of diarrhea was graded as: Grade 0—None; Grade 1—increase of 4 stools/day over pretreatment; Grade 2—increase of 4-6 stools/day, or nocturnal stools; Grade 3—increase of 7 stools/day or incontinence, or dehydration episode requiring parenteral support; Grade 4—episode of hemodynamic collapse requiring intensive care.
TREC Analysis: DNA was isolated from peripheral blood mononuclear cells (PBMC) using an QIAamp Blood Mini DNA Kit (Qiagen) and assessed for signal joint (sj) TREC content relative to genomic CCR5 copies by real-time PCR in a spectroflourometric thermal cycler (ABI PRISM 7700 or 7900, PE Applied Biosystems). SjTREC reactions contained 12.5 pmol primers (forward […] [SEQ ID NO:1]), reverse […] [SEQ ID NO:2]) 3 pmoles TAQMAN probe (FAM-[…]-TAMRA [SEQ ID NO:3]), 1× TAQMAN Universal PCR Master Mix (PE Applied Biosystems), and 50 to 400 ng of template DNA in a total volume of 25 μl. CCR5 reactions contained 12.5 pmol primers (forward […] [SEQ ID NO:4], and reverse […] [SEQ ID NO:5]), 3 pmoles TAQMAN probe (FAM-[…]-TAMRA [SEQ ID NO:6]),1× TAQMAN Universal PCR Master Mix, and 50-400 ng of template of genomic DNA in a total volume of 25 μl. Thermal cycling conditions consisted of a 2-minute incubation at 50° C. and an initial denaturation/activation step at 95° C. for 10 minutes, followed by 40 cycles of 95° C. for 15 seconds and 60° C. for 1 minute in a microplate format. For each plate of reactions, standard curves were generated with 1-100,000 copies of human sjTREC plasmid (provided by Dr. D. Douek, NIH) and human CCR5 plasmid (cloned by RT-PCR into pCI) in order to calculate copies of TREC versus CCR5.
Statistical analysis: Experiments from every figure were performed in duplicate and repeated at least twice. All measurements are presented as means and standard deviations with statistical comparisons made between baseline and day 21 TREC/CCR5 measurements using the Student's t test for paired observations. For FIG. 2, change in baseline to day 21 TREC/CCR5 levels were stratified according to subjects age with 2 subjects <40, 2 subjects 40-65, and 11 subjects >65 years old.

[3] = Side-effect monitoring in the nelfinavir trial in HIV-negative individuals; format: in vivo, human
Protocol: as §1

Row | Compound | tumor response (Kaposi's sarcoma) | tumor growth [1] | volunteers who did not increase TREC numbers following 21 days ([2]; 15 subjects, 21 days) | volunteers who responded with increases in TREC numbers from baseline to day 21 ([2]; 15 subjects, 21 days) | effect on TREC levels / TREC positive naïve T-cell number ([2]; HIV-negative adults, mono-therapy for 21 days) | median increase in TRECs from baseline to day 21 in responders ([2]; eight responding volunteers, p<0.02) [copies TREC/CCR5] | change between baseline and day 21 TREC/CCR5 levels ([2]; entire cohort analyzed) | Day 21/0 TREC ([2]; individual subjects 1-15, nelfinavir 1250 mg orally twice a day for 21 days) | patients in whom TREC copies/copies CCR5 increased ([2]; of 15 subjects, p<0.02) [patients] | patients in whom TREC copies/copies CCR5 did not change ([2]; of 15 subjects, p=NS) [patients] | change in TREC levels between baseline (day 0) and days 3, 5, 7 or 14 ([2]; paired analysis) | average increase in TREC levels ([2]; subjects 40-65 years) [TREC/CCR5 copies] | average change in TREC levels ([2]; subjects greater than 65 years) [TREC/CCR5 copies] | average increase in TREC levels ([2]; subjects less than 40 years) [TREC/CCR5 copies] | clinical tolerability ([3]; 1250 mg orally twice a day for 21 days) | subjects who completed the 21 days of therapy ([3]; 15 subjects) | subjects who experienced Grade 1 or 2 diarrhea ([3]; six of 15 subjects) [%]
1 | CC(C)c1nc(CN(C)C(=O)N[C@H](C(=O)N[C@@H](Cc2ccccc2)C[C@H](O)[C@H](Cc2ccccc2)NC(=O)OCc2cncs2)C(C)C)cs1 [Ritonavir] | significant tumor regression | reduced tumor growth | – | – | – | – | – | – | – | – | – | – | – | – | – | – | –
2 | Cc1c(O)cccc1C(=O)N[C@@H](CSc1ccccc1)[C@H](O)CN1C[C@H]2CCCC[C@H]2C[C@H]1C(=O)NC(C)(C)C [nelfinavir] | – | – | 47 % of total | 53 % of total | induces an increase in TREC levels in a subset of healthy adults; also recorded: increases TREC positive naïve T-cell number | 1.2 | no change | 0.74 and 1.18 and 0.24 and 1.25 and 1.01 and 0.72 and 1.0 and 1.36 and 1.06 and 2.32 and 1.88 and 0.59 and 0.29 and 0.38 and 0.55 | 8 | 7 | No significant change | 0.80 | 0.89 | 1.2 | clinically well tolerated | all but one subject | 40

— US8093234B2, “Method of increasing thymic output in HIV-negative patients by treatment with antiretroviral agents” (Mayo Foundation For Medical Education and Research, priority 2005, dated 2012)
